Test results published in patent US20070179810A1, “Controls for antimicrobial use and infection” (priority 2006, published 2007).

Columns and labels:
Klebsiella pneumoniae = test: Susceptibility of hospital Klebsiella pneumoniae isolates (annual antibiogram); type: cell-based; conditions: for Percent Susceptible in 2000 / Percent Susceptible in 2002 / Percent Susceptible in 2003: K. pneumoniae isolates; for Percent Susceptible in 2000: 2000, year prior to program; for Percent Susceptible in 2002 / Percent Susceptible in 2003: * = statistically significant change compared to 2000; for Change in susceptibility of Klebsiella pneumoniae: 218 isolates, 2000 vs 2002 and 2003, T test
Source text: (§1) The Microbiology Department collected data on the susceptibility of major pathogens and published an annual antibiograrn, a copy of which was placed in each hospital chart as well as sent to all physicians. […] T tests were used in determining statistical significance between the years.

Pseudomonas aeruginosa = tested on: Pseudomonas aeruginosa
Source text: as §1

Serratia marcescens = test: Susceptibility of Serratia marcescens isolates (annual antibiogram); type: cell-based; conditions: 109 isolates; 2000 vs 2002 and 2003
Source text: as §1

[1] = tested on: non-urinary Pseuclomonas aeruginosa; test: Susceptibility of non-urinary Pseudomonas aeruginosa isolates (annual antibiogram); type: cell-based; conditions: 338 isolates; 2000 vs 2002 and 2003
Source text: as §1

non-urinary E. coli = test: Susceptibility of non-urinary E. coli isolates (annual antibiogram); type: cell-based; conditions: 548 isolates
Source text: as §1

Proteus mirahilis = test: Susceptibility of Proteus mirabilis isolates (annual antibiogram); type: cell-based; conditions: 133 isolates; 2000 vs 2002 and 2003
Source text: as §1

urinary E. coli = test: Susceptibility of urinary E. coli isolates (annual antibiogram); type: cell-based; conditions: 1615 isolates
Source text: as §1

Enterobucter cloucue = test: Susceptibility of Enterobacter cloacae isolates (annual antibiogram); type: cell-based; conditions: 134 isolates; 2000 vs 2002 and 2003
Source text: as §1

[2] = 2000, last year before the study

Compound | Percent Susceptible in 2000 (Klebsiella pneumoniae) [%] | Percent Susceptible in 2002 (Klebsiella pneumoniae) | Percent Susceptible in 2003 (Klebsiella pneumoniae) | Change in susceptibility of Klebsiella pneumoniae (Klebsiella pneumoniae) | further results
C[C@H]1COc2c(N3CCN(C)CC3)c(F)cc3c(=O)c(C(=O)O)cn1c23 [Levofloxacin] | 82 | 99* Percent | 96* Percent |  | 
CO/N=C(\C(=O)N[C@@H]1C(=O)N2C(C(=O)O)=C(CSc3nc(=O)c(=O)[nH]n3C)CS[C@H]12)c1csc(N)n1 [Ceftriaxone] | 85 | 98* Percent | 96* Percent | statistically significant increase in susceptibility | 
CO/N=C(\C(=O)N[C@@H]1C(=O)N2C(C(=O)O)=C(COC(N)=O)CS[C@H]12)c1ccco1 [Cefuroxime] | 78 | 94* Percent | 93* Percent | statistically significant increase in susceptibility | 
Trimethoprirn/Sulfa | 86 | 97* Percent | 93% | statistically significant increase in susceptibility | 
NC[C@H]1O[C@H](O[C@H]2[C@H](O)[C@@H](O[C@H]3O[C@H](CO)[C@@H](O)[C@H](N)[C@H]3O)[C@H](N)C[C@@H]2N)[C@H](N)C[C@@H]1O [Tobramycin] | 90 | 99* Percent | 96% | statistically significant increase in susceptibility | 
Gentamicin | 83 | 99* Percent | 96% | statistically significant increase in susceptibility | 
C[C@@H](O)[C@H]1C(=O)N2C(C(=O)O)=C(SCCN=CN)C[C@H]12 [imipenem] |  |  |  |  | Pseudomonas aeruginosa susceptibility in 2000 (Pseudomonas aeruginosa; 2000): 93%; Pseudomonas aeruginosa susceptibility in 2002 (Pseudomonas aeruginosa; 2002, significant decrease): 83%; Pseudomonas aeruginosa susceptibility in 2003 (Pseudomonas aeruginosa; 2003): 91%
CO/N=C(\C(=O)N[C@@H]1C(=O)N2C(C(=O)[O-])=C(C[N+]3(C)CCCC3)CS[C@H]12)c1csc(N)n1 [Cefepime] | 94 | 98% | 98% | did not reach statistical significance | Change in susceptibility of Serratia marcescens (Serratia marcescens): no statistically significant change; Change in susceptibility of non-urinary Pseudomonas aeruginosa [1]: no statistically significant change; Susceptibility of non-urinary E. coli, before (non-urinary E. coli; [2]): 100%; Susceptibility of non-urinary E. coli, after (non-urinary E. coli; during the study (2002 and 2003), significant decrease): 98%; Change in susceptibility of Proteus mirabilis (Proteus mirahilis): no statistically significant change
CC(C)(O/N=C(\C(=O)N[C@@H]1C(=O)N2C(C(=O)[O-])=C(C[n+]3ccccc3)CS[C@H]12)c1csc(N)n1)C(=O)O [Ceftazidime] | 85 | 99* Percent | 96* Percent | statistically significant increase in susceptibility | Change in susceptibility of Serratia marcescens (Serratia marcescens): no statistically significant change; Susceptibility of urinary E. coli, before (urinary E. coli; [2]): 100%; Susceptibility of urinary E. coli, after (urinary E. coli; during the study (2002 and 2003), significant fall): 98%; Change in susceptibility of non-urinary Pseudomonas aeruginosa [1]: no statistically significant change; Change in susceptibility of Enterobacter cloacae (Enterobucter cloucue): no statistically significant change; Change in susceptibility of non-urinary E. coli (non-urinary E. coli; 2000 vs 2002 and 2003): not significant; Change in susceptibility of Proteus mirabilis (Proteus mirahilis): no statistically significant change
